From US8847000B2 (priority 2006, dated 2014)

Test system: cell proliferation
Format: cell-based

Substance	IC50 [µM]
Arsenious acid	10
trimethylarsineoxide [TMAO]	> 6000
